Results from US4508720A, “Amino derivatives of pyridazine, and compositions thereof for the central nervous system” (Sanofi, priority 1981, dated 1985).

Tests used:
[1] = system: mice; settings: mouse, in vivo, ip
Description: (§1) The products to be studied were administered by the intraperitoneal route at increasing doses to batches of 10 mice. The mortality provoked by the products studied were noted during the 24 hours following administration of the product.
During the same experiments, the convulsivant threshold dose of the product is also noted, i.e. the minimum dose for which a convulsivant activity begins to be shown.
(§2) Three products of the prior art are given in this Table by way of comparison: […]

[2] = system: despair reaction; test: Despair reaction (behavioral despair); format: in vivo, female mouse, CDI (Charles River); settings: one hour before the test; for Behavioral Despair (change of immobility time): immobility between 2nd and 6th minute
Description: This test was carried out in the female mouse, CDI (Charles River), weighing 18 to 23 g, according to the method described by Porsolt (Archives Internationales de Pharmacodynamie, 1977, 229, 327-336). The principle of this test is as follows: when a mouse is placed in a narrow recipient, filled with water, it struggles, then, after 2 to 4 mins., it becomes still and floats on its stomach, its back rounded, its rear paws drawn up under its body and it makes only a few movements necessary for maintaining its head out of the water. This reaction is called the despair reaction. Certain psychotherapeutic agents, particularly the antidepressants, extend the time during which the mouse struggles. The following protocol was chosen: The products to be studied were administered by the i.p. route one hour before the test. For the test, the animals are placed in a narrow recipient (10×10×10 cm), filled with water, up to a height of 6 cm, the temperature of the water being 24° C.±2° C. […] Each substance was studied on a batch of 10 mice. The results are the average of at least two experiments.

[3] = system: ptosis induced by reserpine; test: Antagonism of the ptosis induced by reserpine; format: in vivo, female mice CDI (Charles River); settings: Mus musculus, ip, reserpine 2 mg/kg i.v. simultaneously, 1 hour
Description: This test, described by GOURET (Journal de Pharmacologie (Paris), 1973, 4 (1), 105-128), was made on the female mice CDI (Charles River), weighing 20±1 g. The reserpine causes a ptosis one hour after intravenous administration thereof; certain antidepressants oppose this ptosis. The following protocol was chosen: The substances to be studied were administered by the i.p. route. […] One hour after administration of reserpine, the number of animals not presenting ptosis is noted. This test was carried out on batches of 10 mice, the results are expressed in percentage of animals not presenting ptosis and are the average of at least two experiments. By way of comparison, the results obtained with the three products of the prior art, Minaprine, CM 30070 and CM 30071 have also been indicated.

[4] = Acute toxicity (mortality during 24 hours, i.p.); settings: mouse, in vivo, ip
Description: as §1
(§3) From the results obtained, the LD 50, i.e. the dose provoking the death of 50% of the animals studied, is determined for each of the products studied.
as §2

[5] = system: mice; test: Acute toxicity (mortality during 24 hours, i.p.); settings: mouse, in vivo, ip, 1440 min
Description: as §1, §3, §2

[6] = in vivo; cited from earlier work
[7] = per os; cited from earlier work

SMILES | Convulsivant threshold dose [1] | ED50 [3] | LD50 at 24 h [4] | LD50 at 24 h ([4]; mice, 24 hours) | other results
CCN(CC)CCNc1nnc(-c2ccccc2)cc1C [CM 30070, reference compound] | 60 mg/kg | ~50 mg/kg | 80 mg/kg | – | Behavioral Despair, result in words ([2]; 25 mg/kg i.p.): inactive
Cc1cc(-c2ccccc2)nnc1NCCN(C)C [CM 30071, reference compound] | 100 mg/kg | ~50 mg/kg | – | – | Behavioral Despair, result in words ([2]; 10 mg/kg i.p.): inactive; LD50 [5]: 118 (101-139) mg/kg
Cc1cc(-c2ccccc2)nnc1NCCN [CM 30099, 3-(2-Amino Ethylamino)4-Methyl 6-Phenyl Pyridazine] | 200 mg/kg | 16 mg/kg | – | > 200 mg/kg | Behavioral Despair (change of immobility time) ([2]; 10 mg/kg i.p.): -50%
Cc1cc(-c2ccccc2)nnc1NCCCN [CM 30486, 3-(3-aminopropylamino)4-methyl 6-phenyl pyridazine] | > 200 mg/kg | ~10 mg/kg | – | > 200 mg/kg | Behavioral Despair (change of immobility time) ([2]; 10 mg/kg i.p.): -20%
Cc1cc(-c2ccccc2)nnc1NCCCCN [CM 30487, 3-(4-aminobutylamino)4-methyl 6-phenyl pyridazine] | > 200 mg/kg | – | – | > 200 mg/kg | –
Cc1cc(-c2ccccc2)nnc1NCCN1CCOCC1 [Minaprine] | 35 mg/kg | 5 mg/kg | – | – | Behavioral Despair (change of immobility time) ([2]; 10 mg/kg i.p.): -35%; type of psychotherapeutic action [6]: "disinhibitory" activity; dose at which the product proves convulsivant [7]: higher than 100 mg/kg
NCCNc1nnccc1-c1ccccc1 [SR 95002] | 100 mg/kg | – | ~150 mg/kg | – | –
CNCCNc1nnc(-c2ccccc2)cc1C [SR 95029, 2-(2-Methylamino Ethylamino)4-Methyl 6-Phenyl Pyridazine] | 200 mg/kg | – | – | > 200 mg/kg | –
Cc1cc(-c2ccc(O)cc2)nnc1NCCN [SR 95073, 3-(2-Amino Ethylamino)4-Methyl 6-(4-Hydroxy Phenyl)Pyridazine] | > 200 mg/kg | – | – | > 200 mg/kg | –
NCCNc1ccc(-c2ccccc2)nn1 [SR 95085] | > 200 mg/kg | – | > 200 mg/kg | – | –
NCCNc1cc(-c2ccccc2)cnn1 [SR 95086] | > 200 mg/kg | – | > 200 mg/kg | – | –
